Tests used:
[1] = Pharmacokinetics of endomorphin-1 liposome (plasma, LC-MS/MS); type: in vivo, wistar mouse; details: 7.5 mg/kg, after 2 hr
Experimental: The plasma concentration of endomorphin-1 of a wistar mouse was analyzed by LC-MS/MS to study the pharmacokinetics of the endomorphin-1 liposome. […] However, the endomorphin-1 liposomes of Examples 14 and 17 prolonged the retention time of the endomorphin-1 in plasma to 24 hr. Also, T1/2 was prolonged from 6 min. to 2.4 hr and 1.8 hr, respectively.

[2] = Serum stability test of met-enkephalin liposome in fetal bovine serum; type: in vitro ADME; details: fetal bovine serum 1:1 (v/v), 37° C. water bath, 0, 1, 2 and 4 hours, gel filtration
Description: The 2 carriers provided by Example 5 and fetal bovine serum (FBS) were mixed with 1:1 (v/v) to form a solution.

Compound	plasma concentration of endomorphin-1 [1]	residual concentration of met-enkephalin [2] [%]
NC(=O)[C@H](Cc1ccccc1)NC(=O)[C@H](Cc1c[nH]c2ccccc12)NC(=O)[C@@H]1CCCN1C(=O)[C@@H](N)Cc1ccc(O)cc1 [endomorphin-1 solution, endomorphin-1]	no endomorphin-1 was detected	–
met-enkephalin [free met-enkephalin]	–	2
